Laboratory results reported in the supplement of paper PMC7021759.
± gives the standard deviation of the averaged measurements.

System: SK-N-MM (SKNMM-MYCN, doxycycline-inducible MYCN)
Experiment: area under dose-response curve (CellTiter-Glo viability normalised to plate controls) (AUC (arbitrary units)); higher = more loss of viability; extreme values may be limits of the assay
Procedure, shortened: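 In 96-well plates, SK-N-MM cells with doxycycline-inducible MYCN (1250 cells/100 μL) were given medium with or without doxycycline about 24 h after plating. Compound dilution series of 10 points at 1:3 were added two days later and again on day 4, and CellTiter-Glo luminescence was recorded 3 or 8 days after drugging. The area under the dose-response curve was derived from log2 signals normalised to the positive and negative controls on each plate.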

[1] = MYCN induction (doxycycline): +doxycycline (MYCN induced), time after drugging: 3 days
[2] = MYCN induction (doxycycline): +doxycycline (MYCN induced), time after drugging: 8 days
[3] = MYCN induction (doxycycline): no doxycycline (MYCN not induced), time after drugging: 3 days
[4] = MYCN induction (doxycycline): no doxycycline (MYCN not induced), time after drugging: 8 days

SMILES	area under dose-response curve [1]	area under dose-response curve [2]	area under dose-response curve [3]	area under dose-response curve [4]
CCC1=C[C@@H]2CN(C1)Cc1c([nH]c3ccccc13)[C@@](C(=O)OC)(c1cc3c(cc1OC)N(C)[C@H]1[C@@](O)(C(=O)OC)[C@H](OC(C)=O)[C@]4(CC)C=CCN5CC[C@]31[C@@H]54)C2 [VINORELBINE]	207	296	99.3	144
CNC(=O)c1ccc(N2C(=S)N(c3ccc(C#N)c(C(F)(F)F)c3)C(=O)C2(C)C)cc1F [ENZALUTAMIDE]	0	0	0	0
Nc1ccn([C@@H]2O[C@H](CO)[C@@H](O)C2(F)F)c(=O)n1 [GEMCITABINE]	72.2	299	43.4	139
CC(=O)OC[C@H]1O[C@@H]([S-])[C@H](OC(C)=O)[C@@H](OC(C)=O)[C@@H]1OC(C)=O.CCP(CC)CC.[Au+] [AURANOFIN]	199	223	188	208
C/C(=C\c1csc(C)n1)[C@@H]1C[C@@H]2O[C@]2(C)CCC[C@H](C)[C@H](O)[C@@H](C)C(=O)C(C)(C)[C@@H](O)CC(=O)N1 [IXABEPILONE]	121	199	89.9	138
COc1cc2nccc(Oc3ccc(NC(=O)Nc4cc(C)on4)c(Cl)c3)c2cc1OC [TIVOZANIB]	0	0	0	0
CN(Cc1cnc2nc(N)nc(N)c2n1)c1ccc(C(=O)N[C@@H](CCC(=O)O)C(=O)O)cc1 [METHOTREXATE]	3.6	18.6	0.0478	
Cc1cccc(-c2nn3c(c2-c2ccnc4ccc(C(N)=O)cc24)CCC3)n1	0	0	0	0
O=C1NC(=O)[C@@H](c2cn3c4c(cccc24)CCC3)[C@@H]1c1c[nH]c2ccccc12 [TIVANTINIB]	102	135	53.3	77.2
CC(C)(C)c1nc(-c2cccc(NS(=O)(=O)c3c(F)cccc3F)c2F)c(-c2ccnc(N)n2)s1 [DABRAFENIB]	9.29	0	14.1	10.8
COc1c(C)c2c(c(O)c1C/C=C(\C)CCC(=O)OCCN1CCOCC1)C(=O)OC2 [MYCOPHENOLATE MOFETIL]	43.8	115	25.9	51.4
O=c1[nH]cc(F)c(=O)[nH]1 [5-FLUOROURACIL]	12.1	24.8	6.6	25
O=C(c1cc(Cc2n[nH]c(=O)c3ccccc23)ccc1F)N1CCN(C(=O)C2CC2)CC1 [OLAPARIB]	9.23	23.6		0
CNC(=O)c1cc(Oc2ccc(NC(=O)Nc3ccc(Cl)c(C(F)(F)F)c3)cc2)ccn1 [SORAFENIB]	0	0	0	0
Cc1cc(C2CCCCC2)n(O)c(=O)c1 [CICLOPIROX]	0	97.9	15.5	41.6
Nc1ncn([C@H]2C[C@H](O)[C@@H](CO)O2)c(=O)n1 [DECITABINE]	4.2	169	0.521	67.4
C[C@@H](Oc1cc(-c2cnn(C3CCNCC3)c2)cnc1N)c1c(Cl)ccc(F)c1Cl [CRIZOTINIB]	145	196	147	178
COc1cccc2c1C(=O)c1c(O)c3c(c(O)c1C2=O)C[C@@](O)(C(=O)CO)C[C@@H]3O[C@H]1C[C@H](N)[C@H](O)[C@H](C)O1 [DOXORUBICIN]	135	295	104	224
Clc1ccc(C(c2ccccc2Cl)C(Cl)Cl)cc1 (stereo not drawn) [MITOTANE]	0	0	0	0
CO[C@H]1C[C@@H]2CC[C@@H](C)[C@@](O)(O2)C(=O)C(=O)N2CCCC[C@H]2C(=O)O[C@H]([C@H](C)C[C@@H]2CC[C@@H](OC(=O)C(C)(CO)CO)[C@H](OC)C2)CC(=O)[C@H](C)/C=C(\C)[C@@H](O)[C@@H](OC)C(=O)[C@H](C)C[C@H](C)/C=C/C=C/C=C/1C [TEMSIROLIMUS]	8.87 ± 0.32			43.4

SMILES	area under dose-response curve [1]	area under dose-response curve [2]	area under dose-response curve [3]	area under dose-response curve [4]
CC(C)n1nc(-c2ccc3oc(N)nc3c2)c2c(N)ncnc21 [INK-128]	36.2	38.7	29.5	59.3
O=C(Nc1ccccc1-c1cn2c(CN3CCNCC3)csc2n1)c1cnc2ccccc2n1 [SRT1720]	187	220	0.00298	213
C#Cc1cccc(Nc2ncnc3cc(OCCOC)c(OCCOC)cc23)c1 [ERLOTINIB]		1.15	18.8	
COC(=O)N[C@@H](C)CNc1nccc(-c2cn(C(C)C)nc2-c2cc(Cl)cc(NS(C)(=O)=O)c2F)n1 [LGX-818]	12.9	2.41	11	68.6
Cn1c(=O)n(-c2ccc(C(C)(C)C#N)cc2)c2c3cc(-c4cnc5ccccc5c4)ccc3ncc21 [DACTOLISIB]	73.9	132	62.3	96.3
CC[C@@H]1C(=O)N(C)c2cnc(Nc3ccc(C(=O)NC4CCN(C)CC4)cc3OC)nc2N1C1CCCC1 [BI-2536]	85.3	213	65.4	92.1
Cc1c(CN2CCC(Nc3ncnc4sc(CC(F)(F)F)cc34)CC2)ccc2c1cc(C#N)n2Cc1cn[nH]c1 [MI-503]	131	177		169
CN[C@@H]1C[C@H]2O[C@@](C)([C@@H]1OC)n1c3ccccc3c3c4c(c5c6ccccc6n2c5c31)C(=O)N[C@H]4O [7-HYDROXYSTAUROSPORINE]	204	290	144	249
Cc1cc(Nc2cc(N3CCN(C)CC3)nc(/C=C/c3ccccc3)n2)n[nH]1 [ENMD-2076]	86	133	0.719	111
Cc1ncc(CNC(=O)N(CCCl)N=O)c(N)n1 [NIMUSTINE]	0	0	0	0
CS(=O)(=O)c1ccc(-c2cnc(N)c(C(=O)Nc3ccccc3)n2)cc1 [VE-821]	41.9	75.9	8.07	32
CCN(CCO)CCCC(C)Nc1ccnc2cc(Cl)ccc12 (stereo not drawn) [HYDROXYCHLOROQUINE]	0	0		0
COC(=O)[C@]12CCC(C)(C)C[C@H]1[C@H]1C(=O)C=C3[C@@]4(C)C=C(C#N)C(=O)C(C)(C)[C@@H]4CC[C@@]3(C)[C@]1(C)CC2 [BARDOXOLONE METHYL]	212	243	216	226
CC(C)n1c(/C=C/C(O)CC(O)CC(=O)O)c(-c2ccc(F)cc2)c2ccccc21 (stereo not drawn) [FLUVASTATIN]	2.15	11	0	4.98
O=C(NC[C@H](O)CO)c1ccncc1Nc1ccc(I)cc1F [PIMASERTIB]	42.1	125	0	105
CN(C)C(=O)c1cc2cnc(Nc3ccc(N4CCNCC4)cn3)nc2n1C1CCCC1 [RIBOCICLIB]	7.07e-05	12.9	0	15.9
CON(C)C(=O)N1N=C(c2cc(F)ccc2F)S[C@@]1(CCCN)c1ccccc1 [ARRY-520]	218	288	108	154
CS(=O)(=O)c1ccc(C(=O)Nc2ccc(Cl)c(-c3ccccn3)c2)c(Cl)c1 [VISMODEGIB]	0	0	0	0
Nc1cc(C(F)(F)F)c(-c2cc(N3CCOCC3)nc(N3CCOCC3)n2)cn1 [BUPARLISIB]	91.8	150	65.7	86.9
